Format in all cases: biochemical
For one assay, the target named is recombinant human DAGLβ (Homo sapiens (Human), UniProt Q8NCG7). Nature of the assay: SAG substrate assay (in vitro inhibition of 2-AG biosynthesis), membrane lysates from HEK293T cells. Here is the method:
(§1) DAGL modulators were tested for in vitro inhibition of 2-AG biosynthesis using a 1-stearoyl-2-arachidonoyl-sn-glycerol (SAG) substrate assay in DAGL-transfected HEK293 cells.
(§2) The SAG substrate assay, as described in Journal of lipid research 56(4):927-935, was performed using the following assay conditions: 0.2 U/mL glycerol kinase (GK), glycerol-3-phosphate oxidase (GPO) and horseradish peroxidase (HRP), 0.125 mM ATP, 10 μM Amplifu™Red, 5% DMSO in a total volume of 200 μL. The assay additionally contained SAG, a DAGL modulator, and membrane lysates from HEK293T cells expressing recombinant human DAGLα or DAGLβ.
(§3) Membranes were prepared from HEK293T cells transiently transfected with DAGLα or DAGLβ plasmids encoding for full length DAGLα or DAGLβ, respectively (Angewandte Chemie 52(46):12081-12085; Journal of Medicinal Chemistry 57(15):6610-6622). Briefly, one day prior to transfection, 10^7 cells were seeded in a 15 cm petri dish. The seeded cells were transfected by the addition of a 3:1 mixture of polyethyleneimine (60 μg) and plasmid DNA (20 μg) in 2 mL serum free medium. The medium was refreshed after 24 hr, and after 72 hr the cells were harvested by suspending them in 20 mL medium. The suspension was centrifuged for 10 min at 1000 rpm, and the supernatant was removed. The cell pellet was stored at −80° C. until use. Cell pellets were thawed on ice and suspended in lysis buffer A (20 mM HEPES, 2 mM DTT, 0.25 M sucrose, 1 mM MgCl2, lx protease inhibitor cocktail (Roche cOmplete EDTA free), 25 U/μL Benzonase). The suspension was homogenized by polytrone (3×7 sec) and incubated for 30 min on ice. The suspension was subjected to ultracentrifugation (100,000×g, 30 min, 4° C., Beckman Coulter, Type Ti70 rotor) to yield the cytosolic fraction in the supernatant and the membrane fraction as a pellet. The pellet was resuspended in lysis buffer B (20 mM HEPES, 2 mM DTT, lx protease inhibitor cocktail (Roche cOmplete EDTA free)) and the protein concentration determined with Quick Start Bradford assay (Biorad). The protein fractions were diluted to a total protein concentration of 1 mg/mL and stored in small aliquots at −80° C. until use.

The target of another assay is recombinant human DAGLα (Homo sapiens (Human), UniProt Q9Y4D2). The description is as above. The conditions noted are these: n=4, read-out: IC50, DAGLα conversion of SAG to 2-AG. Here is the method:
as §1, §2, §3

In a further assay the target is DAGLα (hDAGLα-FLAG) (Homo sapiens (Human), UniProt Q9Y4D2). In words: competitive ABPP, membrane proteome of transfected HEK293T cells. The conditions noted are these: read-out: DAGLα IC50. The method in brief:
(§4)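 HEK293T membrane proteome (1 mg/ml) expressing FLAG-tagged human DAGLα or DAGLβ, treated 30 min at room temperature with compound, then 30 min with HT-01 or FP-Rh probe (1 μM). Bands separated by SDS-PAGE were normalized to DMSO for IC50 by variable-slope fit.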

A further assay addresses DAGLβ (hDAGLβ-FLAG) (Homo sapiens (Human), UniProt Q8NCG7). The description is as above. The following applies: read-out: DAGLβ IC50. The method in brief: as §4
The target of a further assay is DAGLα (Mus musculus (Mouse), UniProt Q6WQJ1). Nature of the assay: gel-based ABPP of mouse brain proteome, endogenous DAGLs, probe compound 58 and HT-01. Here is the method: (§5) Compounds 14 and 17 were evaluated for activity and selectivity against endogenous DAGLs and other serine hydrolases in the mouse brain proteome using a ABPP of mouse brain proteome assay as described in Example 16. These experiments were performed using three different activity-based probesprobe compound 58 (targets DAGLα and DAGLβ), HT-01 (targets DAGLα and DAGLβ), and FP-Rh (broad-spectrum serine hydrolase-directed probe fluorophosphonate-rhodamine).
DAGLα, sequence (Q6WQJ1 whole entry): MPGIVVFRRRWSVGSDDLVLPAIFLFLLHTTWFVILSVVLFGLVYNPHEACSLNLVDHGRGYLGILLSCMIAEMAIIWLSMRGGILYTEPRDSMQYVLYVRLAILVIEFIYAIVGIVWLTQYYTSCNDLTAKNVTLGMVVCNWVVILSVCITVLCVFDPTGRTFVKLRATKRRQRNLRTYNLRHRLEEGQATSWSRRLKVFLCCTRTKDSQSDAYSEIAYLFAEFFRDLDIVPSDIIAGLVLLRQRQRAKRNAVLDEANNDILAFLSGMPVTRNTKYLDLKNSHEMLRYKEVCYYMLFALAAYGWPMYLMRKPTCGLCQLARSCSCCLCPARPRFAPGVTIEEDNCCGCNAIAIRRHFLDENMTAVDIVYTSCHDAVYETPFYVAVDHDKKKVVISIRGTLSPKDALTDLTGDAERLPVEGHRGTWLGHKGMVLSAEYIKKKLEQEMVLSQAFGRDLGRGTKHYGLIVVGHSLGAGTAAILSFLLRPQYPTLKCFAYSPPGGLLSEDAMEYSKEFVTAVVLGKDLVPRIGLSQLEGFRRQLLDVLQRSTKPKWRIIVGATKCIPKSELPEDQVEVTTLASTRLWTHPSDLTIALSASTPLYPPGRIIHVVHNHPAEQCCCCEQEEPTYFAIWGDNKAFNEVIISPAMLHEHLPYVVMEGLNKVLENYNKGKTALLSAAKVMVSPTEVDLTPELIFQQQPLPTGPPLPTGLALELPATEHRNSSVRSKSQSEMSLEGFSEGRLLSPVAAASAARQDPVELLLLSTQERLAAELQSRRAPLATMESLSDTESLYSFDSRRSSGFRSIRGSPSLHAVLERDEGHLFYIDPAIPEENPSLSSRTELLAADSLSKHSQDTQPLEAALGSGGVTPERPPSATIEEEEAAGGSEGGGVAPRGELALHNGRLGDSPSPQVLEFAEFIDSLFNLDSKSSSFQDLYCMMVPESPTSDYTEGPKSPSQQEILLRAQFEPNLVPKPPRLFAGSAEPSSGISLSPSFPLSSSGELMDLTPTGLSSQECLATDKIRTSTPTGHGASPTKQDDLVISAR
(§6) Data represent average values±SEM; n=3 per group. […] Compounds 14 and 17 had minimal and negligible binding, respectively, to cannabinoid CB1 (CB1R) and CB2 (CB2R) receptors as measured with a radioligand binding assay (IC50 values>1 μM) (data not shown).

The next assay deals with DAGLβ (Mus musculus (Mouse), UniProt Q91WC9). Described as above. How it is done:
as §5, §6

Where two headings read alike, the source gives them in different places.

As a reminder, the IC50 is the concentration needed to halve the response being measured.

recombinant human DAGLα, sequence (Q9Y4D2 whole entry): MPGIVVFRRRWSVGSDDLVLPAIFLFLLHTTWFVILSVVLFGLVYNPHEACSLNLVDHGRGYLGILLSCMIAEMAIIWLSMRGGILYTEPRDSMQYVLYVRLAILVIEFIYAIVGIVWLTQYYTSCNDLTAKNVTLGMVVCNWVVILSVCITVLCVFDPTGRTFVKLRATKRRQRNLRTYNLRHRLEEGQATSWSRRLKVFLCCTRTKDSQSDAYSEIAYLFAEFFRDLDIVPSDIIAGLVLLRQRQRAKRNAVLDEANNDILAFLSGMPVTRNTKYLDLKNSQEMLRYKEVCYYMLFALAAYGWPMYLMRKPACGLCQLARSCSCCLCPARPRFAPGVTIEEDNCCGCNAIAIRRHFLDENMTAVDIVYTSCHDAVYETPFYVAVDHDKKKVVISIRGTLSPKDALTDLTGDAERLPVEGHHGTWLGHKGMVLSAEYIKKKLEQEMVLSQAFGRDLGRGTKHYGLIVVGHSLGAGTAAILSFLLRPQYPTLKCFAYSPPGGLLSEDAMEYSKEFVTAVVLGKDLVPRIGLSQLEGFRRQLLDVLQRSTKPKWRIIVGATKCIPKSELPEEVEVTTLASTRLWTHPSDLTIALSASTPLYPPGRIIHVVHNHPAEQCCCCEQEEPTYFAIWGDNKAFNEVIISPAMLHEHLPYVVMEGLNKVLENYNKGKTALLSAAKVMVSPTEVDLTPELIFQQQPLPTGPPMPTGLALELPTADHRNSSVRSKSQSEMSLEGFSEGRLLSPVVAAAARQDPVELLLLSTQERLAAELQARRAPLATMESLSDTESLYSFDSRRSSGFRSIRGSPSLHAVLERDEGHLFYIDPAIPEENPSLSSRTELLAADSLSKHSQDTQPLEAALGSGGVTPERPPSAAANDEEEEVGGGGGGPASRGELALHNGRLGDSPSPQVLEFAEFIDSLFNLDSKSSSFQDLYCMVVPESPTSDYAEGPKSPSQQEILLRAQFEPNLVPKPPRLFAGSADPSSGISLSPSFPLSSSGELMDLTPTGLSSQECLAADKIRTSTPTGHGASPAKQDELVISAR
DAGLα (hDAGLα-FLAG), sequence (Q9Y4D2 whole entry): as above
DAGLβ (hDAGLβ-FLAG), sequence (Q8NCG7 whole entry): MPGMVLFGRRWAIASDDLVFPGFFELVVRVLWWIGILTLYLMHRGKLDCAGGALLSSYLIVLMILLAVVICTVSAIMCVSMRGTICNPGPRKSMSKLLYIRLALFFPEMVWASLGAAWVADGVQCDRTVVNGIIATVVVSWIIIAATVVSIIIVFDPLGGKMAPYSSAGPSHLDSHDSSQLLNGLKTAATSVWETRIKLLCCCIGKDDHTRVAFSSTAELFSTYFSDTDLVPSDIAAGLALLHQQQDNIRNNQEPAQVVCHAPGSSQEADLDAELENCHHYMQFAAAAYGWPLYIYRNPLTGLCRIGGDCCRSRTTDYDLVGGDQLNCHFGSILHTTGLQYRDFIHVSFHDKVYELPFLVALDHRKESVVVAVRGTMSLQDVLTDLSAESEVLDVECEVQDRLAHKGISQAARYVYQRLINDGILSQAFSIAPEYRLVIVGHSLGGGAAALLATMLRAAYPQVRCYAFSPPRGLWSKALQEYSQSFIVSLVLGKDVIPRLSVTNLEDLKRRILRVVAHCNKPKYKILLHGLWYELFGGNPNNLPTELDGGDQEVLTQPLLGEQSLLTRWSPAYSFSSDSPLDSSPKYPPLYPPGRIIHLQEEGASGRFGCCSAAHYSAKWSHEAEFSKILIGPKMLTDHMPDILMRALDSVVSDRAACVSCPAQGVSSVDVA
recombinant human DAGLβ, sequence (Q8NCG7 whole entry): as above
DAGLβ, sequence (Q91WC9 whole entry): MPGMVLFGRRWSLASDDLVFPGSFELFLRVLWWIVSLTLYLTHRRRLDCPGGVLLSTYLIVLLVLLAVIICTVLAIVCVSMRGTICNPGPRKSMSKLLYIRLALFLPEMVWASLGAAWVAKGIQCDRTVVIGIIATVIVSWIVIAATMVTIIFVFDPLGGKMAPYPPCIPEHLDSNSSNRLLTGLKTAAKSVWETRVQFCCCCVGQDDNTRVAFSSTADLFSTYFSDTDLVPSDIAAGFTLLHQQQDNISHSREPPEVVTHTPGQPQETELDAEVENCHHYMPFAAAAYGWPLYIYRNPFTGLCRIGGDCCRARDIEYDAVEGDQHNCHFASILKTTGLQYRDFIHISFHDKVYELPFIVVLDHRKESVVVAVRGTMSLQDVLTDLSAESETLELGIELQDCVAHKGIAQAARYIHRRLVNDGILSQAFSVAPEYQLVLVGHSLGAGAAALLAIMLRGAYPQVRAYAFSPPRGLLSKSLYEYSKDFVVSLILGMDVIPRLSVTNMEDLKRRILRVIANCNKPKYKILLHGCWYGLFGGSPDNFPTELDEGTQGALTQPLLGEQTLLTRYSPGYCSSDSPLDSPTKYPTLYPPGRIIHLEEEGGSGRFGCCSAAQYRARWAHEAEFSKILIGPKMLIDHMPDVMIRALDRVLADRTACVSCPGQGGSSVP

In the case of `C#CCO[C@@H]1CC[C@H](Cc2ccccc2)N(C(=O)n2ncc(C(O)(c3ccc(F)cc3)c3ccc(F)cc3)n2)C1` [Compound 14, ((2R,5R)-2-Benzyl-5-(prop-2-ynyloxy)piperidin-1-yl)(4-(bis(4-fluorophenyl)(hydroxy)methyl)-2H-1,2,3-triazol-2-yl)methanone], the IC50 was 3 to 8 nM on recombinant human DAGLβ; 6 nM on recombinant human DAGLα; not above 400 nM at DAGLα (hDAGLα-FLAG); not above 400 nM on DAGLβ (hDAGLβ-FLAG); 0.5 to 1.2 nM on DAGLα; 2.3 to 4.8 nM on DAGLβ.

In the case of `CC(C)(C)OC(=O)N1CCN(C(=O)n2cc(-c3ccc(OC(F)(F)F)cc3)nn2)C(Cc2ccccc2)C1` (stereo not drawn) [Compound 17, tert-Butyl 3-benzyl-4-(4-(4-(trifluoromethoxy)phenyl)-1H-1,2,3-triazole-1-carbonyl)piperazine-1-carboxylate], the IC50 on recombinant human DAGLβ is 3 to 8 nM; at recombinant human DAGLα it was 6 nM; at DAGLα (hDAGLα-FLAG), not above 400 nM; on DAGLβ (hDAGLβ-FLAG) it was not above 400 nM; on DAGLα (mouse brain proteome, probes 1 μM, 30 min, read-out: IC50, DAGLα labeling by compound 58 and HT-01), 0.5 to 1.2 nM; on DAGLβ (mouse brain proteome, probes 1 μM, 30 min, read-out: IC50, DAGLβ labeling by compound 58 and HT-01), 2.3 to 4.8 nM.

For the origin of these results see patent US10583137B2, “Triazole DAGLα inhibitors” (THE SCRIPPS RESEARCH INSTITUTE, priority 2015, dated 2020).
